Source: ChEMBL document CHEMBL3525988, “Delayed elimination of SN-38 in cancer patients with severe renal failure” (Drug Metab Dispos, 2011)

Assays:
[1] = Terminal elimination rate constant in cancer patient with severe renal failure administered as infusion after 0.25 to 1.5 hrs by RP-HPLC analysis; type: ADME, organism-based; design: dosed compound name Irinotecan; details: human, in vivo, iv; read-out: k_elim (converted)
[2] = Terminal elimination rate constant in cancer patient normal renal function administered as infusion after 0.25 to 1.5 hrs by RP-HPLC analysis; type: ADME, organism-based; design: dosed compound name Irinotecan; details: human, in vivo, iv; read-out: k_elim (converted)

| k el [1] [s⁻¹] | k el [2] [s⁻¹] | SMILES |
| --- | --- | --- |
| 2.34e-06 | 2.26e-05 | CCc1c2c(nc3ccc(O)cc13)-c1cc3c(c(=O)n1C2)COC(=O)[C@]3(O)CC [7-ETHYL-10-HYDROXYCAMPTOTHECIN] |
| 2.81e-05 | 3.33e-05 | CCc1c2c(nc3ccc(OC(=O)N4CCC(N5CCCCC5)CC4)cc13)-c1cc3c(c(=O)n1C2)COC(=O)[C@]3(O)CC [IRINOTECAN] |

| SMILES | k el [1] [s⁻¹] | k el [2] [s⁻¹] |
| --- | --- | --- |
| CCc1c2c(nc3ccc(O[C@@H]4O[C@H](C(=O)O)[C@@H](O)[C@H](O)[C@H]4O)cc13)-c1cc3c(c(=O)n1C2)COC(=O)[C@]3(O)CC | 8.61e-06 | 1.7e-05 |
